Data on 9 molecules can be found in article PMC11576293, “New series of 4,6-diaryl pyrimidines: facile synthesis and antiproliferative activity as dual EGFR/VEGFR-2 inhibitors” (Frontiers in Chemistry, 2024).

For orientation: inhibition means the share of the control response that was lost under treatment. In general, IC50 refers to the midpoint of a concentration-inhibition curve.

The first assay concerns MOLT-4. The assay can be described thus: NCI-60 single-dose screen. The assay is classed as cell-based. Particulars: Homo sapiens, single dose 10 µM, '-' = no inhibition, read-out: % Growth Inhibition. Summed up:
(§1)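 Values come from NCI-60 one-dose testing: compound at 10 μM against sixty human cancer cell lines of nine tissue types, performed at NCI DTP.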
For the molecule `C=CCSc1nc(-c2ccc(Cl)cc2)cc(-c2ccc(OC)cc2)n1` [Compound 13, 2-(Allylthio)-4-(4-chlorophenyl)-6-(4-methoxyphenyl)pyrimidine], the inhibition at 10 µM stood at 14.3%.

On to `COc1ccc(CSc2nc(-c3ccc(Cl)cc3)cc(-c3ccc(OC)cc3)n2)cc1` [Compound 15, 2-(4-Methoxybenzylthio)-4-(4-chlorophenyl)-6-(4-methoxyphenyl)pyrimidine], for which the inhibition at 10 µM amounted to 3.03%.

Regarding `COc1ccc(-c2cc(-c3cccc(OC)c3)nc(SC)n2)cc1` [Compound 16, 6-(3-Methoxyphenyl)-4-(4-methoxyphenyl)-2-(methylthio)pyrimidine], the inhibition at 10 µM came to 19.9%.

Take `CCSc1nc(-c2ccc(OC)cc2)cc(-c2cccc(OC)c2)n1` [Compound 17, 2-(Ethylthio)-6-(3-methoxyphenyl)-4-(4-methoxyphenyl)pyrimidine]: the inhibition at 10 µM stood at 4.56%.

As to `CCCSc1nc(-c2ccc(OC)cc2)cc(-c2cccc(OC)c2)n1` [Compound 18, 6-(3-Methoxyphenyl)-4-(4-methoxyphenyl)-2-(propylthio)pyrimidine], the inhibition at 10 µM stood at 6.49%.

With `C=CCSc1nc(-c2ccc(OC)cc2)cc(-c2cccc(OC)c2)n1` [Compound 20, 2-(Allylthio)-6-(3-methoxyphenyl)-4-(4-methoxyphenyl)pyrimidine], the inhibition at 10 µM was 12.5%.

`COc1ccc(-c2cc(-c3ccc(Cl)cc3)nc(SC)n2)cc1OC` [Compound 23, 4-(4-Chlorophenyl)-6-(3,4-dimethoxyphenyl)-2-(methylthio)pyrimidine]: the inhibition at 10 µM came out at 26.7%.

Turning to `CCSc1nc(-c2ccc(Cl)cc2)cc(-c2ccc(OC)c(OC)c2)n1` [Compound 24, 4-(4-Chlorophenyl)-2-(ethylthio)-6-(3,4-dimethoxyphenyl)pyrimidine], the inhibition at 10 µM is 37%.

As to `CCCSc1nc(-c2ccc(Cl)cc2)cc(-c2ccc(OC)c(OC)c2)n1` [Compound 25, 4-(4-Chlorophenyl)-6-(3,4-dimethoxyphenyl)-2-(propylthio)pyrimidine], the inhibition at 10 µM is 19.1%.

The subject of another assay is SF-268. The assay can be described thus: NCI-60 single-dose screen. Format: cell-based. The settings on record: Homo sapiens, single dose 10 µM, '-' = no inhibition, read-out: % Growth Inhibition. In a few lines: as §1
Take `C=CCSc1nc(-c2ccc(Cl)cc2)cc(-c2ccc(OC)cc2)n1` [Compound 13, 2-(Allylthio)-4-(4-chlorophenyl)-6-(4-methoxyphenyl)pyrimidine]: the inhibition at 10 µM is under 0%.

Regarding `COc1ccc(CSc2nc(-c3ccc(Cl)cc3)cc(-c3ccc(OC)cc3)n2)cc1` [Compound 15, 2-(4-Methoxybenzylthio)-4-(4-chlorophenyl)-6-(4-methoxyphenyl)pyrimidine], the inhibition at 10 µM is under 0%.

Turning to `COc1ccc(-c2cc(-c3cccc(OC)c3)nc(SC)n2)cc1` [Compound 16, 6-(3-Methoxyphenyl)-4-(4-methoxyphenyl)-2-(methylthio)pyrimidine], the inhibition at 10 µM worked out at 15.7%.

Take `CCSc1nc(-c2ccc(OC)cc2)cc(-c2cccc(OC)c2)n1` [Compound 17, 2-(Ethylthio)-6-(3-methoxyphenyl)-4-(4-methoxyphenyl)pyrimidine]: the inhibition at 10 µM was under 0%.

In the case of `CCCSc1nc(-c2ccc(OC)cc2)cc(-c2cccc(OC)c2)n1` [Compound 18, 6-(3-Methoxyphenyl)-4-(4-methoxyphenyl)-2-(propylthio)pyrimidine], the inhibition at 10 µM is under 0%.

In the case of `C=CCSc1nc(-c2ccc(OC)cc2)cc(-c2cccc(OC)c2)n1` [Compound 20, 2-(Allylthio)-6-(3-methoxyphenyl)-4-(4-methoxyphenyl)pyrimidine], the inhibition at 10 µM was under 0%.

Regarding `COc1ccc(-c2cc(-c3ccc(Cl)cc3)nc(SC)n2)cc1OC` [Compound 23, 4-(4-Chlorophenyl)-6-(3,4-dimethoxyphenyl)-2-(methylthio)pyrimidine], the inhibition at 10 µM amounted to 11.5%.

For `CCSc1nc(-c2ccc(Cl)cc2)cc(-c2ccc(OC)c(OC)c2)n1` [Compound 24, 4-(4-Chlorophenyl)-2-(ethylthio)-6-(3,4-dimethoxyphenyl)pyrimidine], the inhibition at 10 µM was 16.9%.

Regarding `CCCSc1nc(-c2ccc(Cl)cc2)cc(-c2ccc(OC)c(OC)c2)n1` [Compound 25, 4-(4-Chlorophenyl)-6-(3,4-dimethoxyphenyl)-2-(propylthio)pyrimidine], the inhibition at 10 µM is 6.85%.

The subject of the next assay is KM12. Kind of assay: NCI-60 single-dose screen. Format: cell-based. Particulars: Homo sapiens, single dose 10 µM, '-' = no inhibition, read-out: % Growth Inhibition. Summed up: as §1
Take `C=CCSc1nc(-c2ccc(Cl)cc2)cc(-c2ccc(OC)cc2)n1` [Compound 13, 2-(Allylthio)-4-(4-chlorophenyl)-6-(4-methoxyphenyl)pyrimidine]: the inhibition at 10 µM turned out to be 0.8%.

With `COc1ccc(CSc2nc(-c3ccc(Cl)cc3)cc(-c3ccc(OC)cc3)n2)cc1` [Compound 15, 2-(4-Methoxybenzylthio)-4-(4-chlorophenyl)-6-(4-methoxyphenyl)pyrimidine], the inhibition at 10 µM was under 0%.

On to `COc1ccc(-c2cc(-c3cccc(OC)c3)nc(SC)n2)cc1` [Compound 16, 6-(3-Methoxyphenyl)-4-(4-methoxyphenyl)-2-(methylthio)pyrimidine], for which the inhibition at 10 µM stood at 6.2%.

With `CCSc1nc(-c2ccc(OC)cc2)cc(-c2cccc(OC)c2)n1` [Compound 17, 2-(Ethylthio)-6-(3-methoxyphenyl)-4-(4-methoxyphenyl)pyrimidine], the inhibition at 10 µM came to 2.23%.

Consider `CCCSc1nc(-c2ccc(OC)cc2)cc(-c2cccc(OC)c2)n1` [Compound 18, 6-(3-Methoxyphenyl)-4-(4-methoxyphenyl)-2-(propylthio)pyrimidine], for which the inhibition at 10 µM came to 1.47%.

Turning to `C=CCSc1nc(-c2ccc(OC)cc2)cc(-c2cccc(OC)c2)n1` [Compound 20, 2-(Allylthio)-6-(3-methoxyphenyl)-4-(4-methoxyphenyl)pyrimidine], the inhibition at 10 µM was under 0%.

With `COc1ccc(-c2cc(-c3ccc(Cl)cc3)nc(SC)n2)cc1OC` [Compound 23, 4-(4-Chlorophenyl)-6-(3,4-dimethoxyphenyl)-2-(methylthio)pyrimidine], the inhibition at 10 µM is 25.4%.

With `CCSc1nc(-c2ccc(Cl)cc2)cc(-c2ccc(OC)c(OC)c2)n1` [Compound 24, 4-(4-Chlorophenyl)-2-(ethylthio)-6-(3,4-dimethoxyphenyl)pyrimidine], the inhibition at 10 µM worked out at 29.8%.

Regarding `CCCSc1nc(-c2ccc(Cl)cc2)cc(-c2ccc(OC)c(OC)c2)n1` [Compound 25, 4-(4-Chlorophenyl)-6-(3,4-dimethoxyphenyl)-2-(propylthio)pyrimidine], the inhibition at 10 µM stood at 25.5%.

In the next assay the target is VEGFR-2 (Homo sapiens, UniProt P35968). Kind of assay: VEGFR-2 inhibitory assay.
Chain of VEGFR-2 (P35968 20-1356): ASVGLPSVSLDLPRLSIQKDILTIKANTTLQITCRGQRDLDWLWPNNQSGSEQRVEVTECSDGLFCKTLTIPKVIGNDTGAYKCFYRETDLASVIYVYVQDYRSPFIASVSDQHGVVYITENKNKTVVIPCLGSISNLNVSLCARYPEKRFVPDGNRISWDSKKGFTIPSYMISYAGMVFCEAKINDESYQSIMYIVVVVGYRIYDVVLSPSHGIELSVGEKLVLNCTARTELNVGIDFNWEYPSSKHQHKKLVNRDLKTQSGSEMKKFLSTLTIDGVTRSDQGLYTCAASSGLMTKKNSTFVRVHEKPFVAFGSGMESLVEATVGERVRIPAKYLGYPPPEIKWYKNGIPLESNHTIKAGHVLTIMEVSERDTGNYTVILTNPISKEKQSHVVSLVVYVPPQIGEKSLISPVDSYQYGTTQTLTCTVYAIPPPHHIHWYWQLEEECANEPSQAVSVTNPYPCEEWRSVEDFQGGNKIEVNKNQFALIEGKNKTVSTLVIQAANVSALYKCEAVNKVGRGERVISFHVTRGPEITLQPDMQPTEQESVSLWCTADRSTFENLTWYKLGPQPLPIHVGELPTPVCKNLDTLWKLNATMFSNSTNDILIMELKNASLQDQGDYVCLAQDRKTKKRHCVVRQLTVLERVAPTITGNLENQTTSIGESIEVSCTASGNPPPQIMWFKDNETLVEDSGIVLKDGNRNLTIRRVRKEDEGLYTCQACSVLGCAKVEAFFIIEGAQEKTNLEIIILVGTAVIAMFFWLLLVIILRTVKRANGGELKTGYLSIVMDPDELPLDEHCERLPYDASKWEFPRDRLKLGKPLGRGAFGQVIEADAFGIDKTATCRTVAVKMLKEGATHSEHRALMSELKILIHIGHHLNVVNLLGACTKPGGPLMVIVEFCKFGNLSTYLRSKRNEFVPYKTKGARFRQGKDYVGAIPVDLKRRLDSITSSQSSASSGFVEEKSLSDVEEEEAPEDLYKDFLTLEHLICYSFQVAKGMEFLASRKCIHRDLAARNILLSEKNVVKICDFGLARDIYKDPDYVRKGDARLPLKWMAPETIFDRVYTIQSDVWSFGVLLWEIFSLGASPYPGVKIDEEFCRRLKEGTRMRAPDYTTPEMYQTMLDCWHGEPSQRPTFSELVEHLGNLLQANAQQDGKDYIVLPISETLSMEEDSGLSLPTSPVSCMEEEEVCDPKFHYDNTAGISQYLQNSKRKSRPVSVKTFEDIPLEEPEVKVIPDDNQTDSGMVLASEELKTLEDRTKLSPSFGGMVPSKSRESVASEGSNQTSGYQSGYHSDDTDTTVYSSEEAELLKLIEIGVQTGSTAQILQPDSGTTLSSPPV
Conditions: not given
With `CCSc1nc(-c2ccc(OC)cc2)cc(-c2cccc(OC)c2)n1` [Compound 17, 2-(Ethylthio)-6-(3-methoxyphenyl)-4-(4-methoxyphenyl)pyrimidine], it took 1.85 ± 0.01 nM to reach half-maximal inhibition (IC50).

In turn, `CCCSc1nc(-c2ccc(Cl)cc2)cc(-c2ccc(OC)c(OC)c2)n1` [Compound 25, 4-(4-Chlorophenyl)-6-(3,4-dimethoxyphenyl)-2-(propylthio)pyrimidine] yielded a half-inhibitory concentration (IC50) of 2.95 ± 0.02 nM.

The subject of a further assay is four cancer cell lines (A-549, MCF-7, Panc-1, HT-29). Kind of assay: Antiproliferative assay, average over four cancer cell lines. Format: cell-based. Particulars: Homo sapiens; average of the four cancer cell lines; read-out: Average IC50 (GI50). An excerpt: Table 2 presents the four cancer cell lines’ median inhibitory concentration (IC50) and GI50 (average IC50) values.
The IC50 values were derived from dose-response tests. The reported data are derived from at least two independent studies, each comprising three replicates per concentration. See Supplementary Material A1 for more details.
Turning to `C=CCSc1nc(-c2ccc(Cl)cc2)cc(-c2ccc(OC)cc2)n1` [Compound 13, 2-(Allylthio)-4-(4-chlorophenyl)-6-(4-methoxyphenyl)pyrimidine], the IC50 was 66 nM.

As for `COc1ccc(CSc2nc(-c3ccc(Cl)cc3)cc(-c3ccc(OC)cc3)n2)cc1` [Compound 15, 2-(4-Methoxybenzylthio)-4-(4-chlorophenyl)-6-(4-methoxyphenyl)pyrimidine], the concentration for half-maximal inhibition (IC50) worked out at 80 nM.

Take `COc1ccc(-c2cc(-c3cccc(OC)c3)nc(SC)n2)cc1` [Compound 16, 6-(3-Methoxyphenyl)-4-(4-methoxyphenyl)-2-(methylthio)pyrimidine]: the concentration for half-maximal inhibition (IC50) turned out to be 86 nM.

In the case of `CCSc1nc(-c2ccc(OC)cc2)cc(-c2cccc(OC)c2)n1` [Compound 17, 2-(Ethylthio)-6-(3-methoxyphenyl)-4-(4-methoxyphenyl)pyrimidine], the half-maximal inhibitory concentration (IC50) worked out at 29 nM.

With `CCCSc1nc(-c2ccc(OC)cc2)cc(-c2cccc(OC)c2)n1` [Compound 18, 6-(3-Methoxyphenyl)-4-(4-methoxyphenyl)-2-(propylthio)pyrimidine], the IC50 is 45 nM.

On to `C=CCSc1nc(-c2ccc(OC)cc2)cc(-c2cccc(OC)c2)n1` [Compound 20, 2-(Allylthio)-6-(3-methoxyphenyl)-4-(4-methoxyphenyl)pyrimidine], for which the IC50 amounted to 71 nM.

On to `COc1ccc(-c2cc(-c3ccc(Cl)cc3)nc(SC)n2)cc1OC` [Compound 23, 4-(4-Chlorophenyl)-6-(3,4-dimethoxyphenyl)-2-(methylthio)pyrimidine], for which the half-inhibitory concentration (IC50) was determined as 48 nM.

With `CCSc1nc(-c2ccc(Cl)cc2)cc(-c2ccc(OC)c(OC)c2)n1` [Compound 24, 4-(4-Chlorophenyl)-2-(ethylthio)-6-(3,4-dimethoxyphenyl)pyrimidine], the IC50 was determined as 31 nM.

`CCCSc1nc(-c2ccc(Cl)cc2)cc(-c2ccc(OC)c(OC)c2)n1` [Compound 25, 4-(4-Chlorophenyl)-6-(3,4-dimethoxyphenyl)-2-(propylthio)pyrimidine]: the 50% inhibitory concentration (IC50) was 33 nM.

The target of a further assay is T1, EGFR (Homo sapiens, UniProt P00533).
T1 construct: amino acids 645–1186; His6 (N); made in house; host or cells: Sf-9 insect cells (baculovirus; pBlueBacHis2B / pFASTBacHTc)
T1 sequence (P00533 669-1210): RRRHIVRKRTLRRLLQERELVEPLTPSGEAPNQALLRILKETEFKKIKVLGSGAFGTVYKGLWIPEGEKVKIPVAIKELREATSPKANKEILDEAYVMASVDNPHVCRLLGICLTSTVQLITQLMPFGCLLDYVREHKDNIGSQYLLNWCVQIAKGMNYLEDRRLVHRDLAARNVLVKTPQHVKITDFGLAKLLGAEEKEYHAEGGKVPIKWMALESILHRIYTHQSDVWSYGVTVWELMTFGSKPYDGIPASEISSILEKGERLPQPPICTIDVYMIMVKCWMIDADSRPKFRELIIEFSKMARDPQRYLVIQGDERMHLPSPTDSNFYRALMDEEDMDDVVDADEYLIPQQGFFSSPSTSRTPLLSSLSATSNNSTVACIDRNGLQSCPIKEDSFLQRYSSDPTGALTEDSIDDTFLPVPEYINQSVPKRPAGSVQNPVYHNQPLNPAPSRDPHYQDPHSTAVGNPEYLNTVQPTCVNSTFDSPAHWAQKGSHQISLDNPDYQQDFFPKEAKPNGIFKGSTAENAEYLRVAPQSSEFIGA
Kind of assay: EGFR-TK inhibitory assay. Particulars: read-out: EGFR inhibition IC50 ± SEM. The assay is classed as biochemical.
As to `CCSc1nc(-c2ccc(OC)cc2)cc(-c2cccc(OC)c2)n1` [Compound 17, 2-(Ethylthio)-6-(3-methoxyphenyl)-4-(4-methoxyphenyl)pyrimidine], the IC50 was found to be 87 ± 6 nM.

For the molecule `CCCSc1nc(-c2ccc(Cl)cc2)cc(-c2ccc(OC)c(OC)c2)n1` [Compound 25, 4-(4-Chlorophenyl)-6-(3,4-dimethoxyphenyl)-2-(propylthio)pyrimidine], the IC50 came to 78 ± 5 nM.
